From patent US20130096067A1, “DROSOPHILA TUMOR STEM CELL MODEL AND USES THEREOF” (priority 2011, published 2013)
Values joined by “and” are separate entries in the source; they are usually repeats but may differ in a detail not shown here. Identical values can stand only once. Like-named read-outs stand apart in the source and are kept apart here. Square brackets hold non-standard residues; d marks the D form. Peptide text beside a SMILES is read from it. * marks the point of attachment. Nle = CCCC[C@H](N)C(=O)O; CH2Cl = ClC*

Tested on: Raf-1^gof intestinal tumors
Settings: for Log2 (fold) (luciferase activity, log2 of the fold difference relative to DMSO controls) / Fold (luciferase activity, fold difference relative to DMSO controls): screen of 480 ICCB compounds in vials, compounds fed to flies with one-day old Raf-1^gof tumors, esg-Gal4 luciferase; for Fold: Table 3 summary of hits, Screen ICCB, luciferase relative to DMSO, fed three consecutive days in vials
[1] = assessed three days later, averaged from multiple wells
[2] = ICCB compounds fed in vials to flies with one-day old Raf-1^gof tumors, assessed three days later
[3] = ICCB compounds fed in vials to flies with one-day old Raf-1^gof tumors, assessed three days later, averaged from multiple wells
Throughout, for Fold (luciferase activity relative to DMSO controls): test concentration or dose not given here.
Throughout, for Fold (luciferase activity, fold difference relative to DMSO controls): test concentration or dose not given here.
Throughout, for Log2 (fold) (luciferase activity, log2 of the fold difference relative to DMSO controls): test concentration or dose not given here.
Throughout, for Log2 (fold) of luciferase activity relative to DMSO controls: test concentration or dose not given here.

| Compound | Log2 (fold) (luciferase activity, log2 of the fold difference relative to DMSO controls) (assessed three days later) | Fold (luciferase activity, fold difference relative to DMSO controls) [1] | Log2 (fold) of luciferase activity relative to DMSO controls [2] | Fold (luciferase activity relative to DMSO controls) [3] [fold] | also measured |
| --- | --- | --- | --- | --- | --- |
| C[C@H]1CCC/C=C/[C@@H]2C[C@H](O)C[C@H]2[C@H](O)/C=C/C(=O)O1 [brefeldin A] | −0.422 | 0.746 | – | – | – |
| Cc1ccc(-c2nn(C(C)(C)C)c3ncnc(N)c23)cc1 [PP1] | – | – | 0.503 | 1.418 | – |
| CCCCCCCCCCCCCCC(F)C(=O)O (stereo not shown) [2-FLUOROPALMITIC ACID] | – | – | 0.051 | 1.036 | – |
| C/C(=C\c1ccc(C(=O)O)cc1)c1ccc2c(c1)C(C)(C)CCC2(C)C [TTNPB] | – | – | −0.114 | 0.924 | – |
| CN1C(=O)[C@]23CC4=CC=C[C@H](O)[C@H]4N2C(=O)[C@@]1(CO)SS3 [Gliotoxin] | −0.478 | 0.718 | – | – | – |
| CCCCCCCCCC(=O)OCC(CO)OC(=O)CCCCCCCCC (stereo not shown) [1,2-DIDECANOYL-GLYCEROL (10:0)] | – | – | 0.310 | 1.240 | – |
| LY-294002 | – | – | −0.204 | 0.868 | – |
| CCCCCC=CCC=CCC=CCC1OC1CCCC(=O)O (stereo not shown) [5,6-EPOXYEICOSATRIENOIC ACID] | – | – | −0.164 | 0.892 | – |
| CCCCC[C@H](O)/C=C/[C@@H]1[C@H]2C/C(=C/CCCC(=O)[O-])O[C@H]2C[C@H]1O.[Na+] [PROSTAGLANDIN I2 Na] | −0.244 | 0.844 | – | – | – |
| Nc1ncnc2c1ncn2C1CCCO1 (stereo not shown) [SQ22536] | −0.270 | 0.829 | – | – | – |
| CS(=O)(=O)Nc1ccc([N+](=O)[O-])cc1OC1CCCCC1 [NS-398] | −0.592 | 0.663 | – | – | – |
| CCCCC/C=C\C[C@H](O)/C=C/C=C\C/C=C\CCCC(=O)O [12(S)-HETE] | – | – | 0.055 | 1.039 | – |
| O=c1c(-c2ccc(O)cc2)coc2cc(O)cc(O)c12 [genistein] | −0.275 | 0.826 | – | – | – |
| C/C1=C/C(=O)O[C@@H]2C[C@@H](CC[C@H](C)/C=C\CC1)O[C@@](O)([C@@H]1CSC(=O)N1)C2 [Latrunculin B, reference compound] | −1.064 | 0.478 | – | – | Fold: 0.478 fold |
| CC(C)(O)[C@H]1O[C@H]2CC[C@@]3(C)[C@@](O)(CC[C@H]4Cc5c([nH]c6ccccc56)[C@@]43C)C2=CC1=O [PAXILLINE] | – | – | −0.078 | 0.948 | – |
| CCCCNc1cc(C(=O)O)cc(S(N)(=O)=O)c1Oc1ccccc1 [bumetanide] | – | – | −0.048 | 0.967 | – |
| COc1cc(-c2ccc(=O)[nH]n2)ccc1OC(F)F [zardaverine] | – | – | 0.145 | 1.106 | – |
| CCCNC(=O)[C@H]1O[C@@H]1C(=O)N[C@H](C(=O)N1CCC[C@H]1C(=O)OC)[C@@H](C)CC [CA-074-Me] | – | – | −0.114 | 0.924 | – |
| CCCCCCCC/C=C\CCCCCCCC(=O)OCC(CO)OC(C)=O (stereo not shown) [1-OLEOYL-2-ACETYL-GLYCEROL] | −0.727 and −0.716 | 0.604 and 0.609 | – | – | – |
| CN(C)C[C@H](O)Cn1c2ccc(Br)cc2c2cc(Br)ccc21 (racemic) [Wiskostatin] | −0.646 | 0.639 | – | – | – |
| CCCCC/C=C\C\C=C/C=C/C=C/[C@@H](SCC(NC(C)=O)C(=O)O)[C@@H](O)CCCC(=O)O (stereo partly shown) [N-ACETYL-LEUKOTRIENE E4] | −0.318 | 0.802 | – | – | – |
| Ro 20-1724 | −0.242 | 0.846 | – | – | – |
| calphostin C | −0.707 | 0.613 | – | – | – |
| CCCCC/C=C\C/C=C\C/C=C\C/C=C\CCCC(N)=O [ARACHIDONAMIDE] | – | – | −0.069 | 0.954 | – |

| Compound | Log2 (fold) (luciferase activity, log2 of the fold difference relative to DMSO controls) (assessed three days later) | Fold (luciferase activity, fold difference relative to DMSO controls) [1] | Log2 (fold) of luciferase activity relative to DMSO controls [2] | Fold (luciferase activity relative to DMSO controls) [3] [fold] | also measured |
| --- | --- | --- | --- | --- | --- |
| O=c1oc(Cl)c(Cl)c2ccccc12 [3,4-dichloroisocoumarin] | −0.772 | 0.586 | – | – | – |
| CCCCC/C=C\CC1OC1CCCCCCCC(=O)O (stereo not shown) [LEUKOTOXIN A (9,10-EODE)] | −0.216 | 0.861 | – | – | – |
| C[C@H](N)C(=O)N[C@@H](C)C(=O)N[C@@H](Cc1ccccc1)C(=O)CCl [Ala-Ala-Phe-CMK] (H-Ala-Ala-Phe-CH2Cl) | −0.738 | 0.599 | – | – | – |
| c1ccc2c(Cc3c[nH]c4ccccc34)c[nH]c2c1 [DIINDOLYLMETHANE] | – | – | 0.465 | 1.381 | – |
| CCCCCCCC/C=C\CCCCCCCC(N)=O [9,10-OCTADECENOAMIDE] | −0.454 | 0.730 | – | – | – |
| C1CCC[C@H]2CCCN3CC[C@@H](CCCCCC[C@@H]4CCCN5CC[C@@H](CC1)O[C@@H]45)O[C@@H]23 [Xestospongin C] | −0.456 | 0.729 | – | – | – |
| LY-171883 | – | – | 0.168 | 1.124 | – |
| CNC(=O)[C@H](Cc1c[nH]c2ccccc12)NC(=O)[C@@H](CC(=O)NO)CC(C)C [GM6001] | – | – | 0.173 | 1.128 | – |
| Cc1ccc(S(=O)(=O)N[C@@H](Cc2ccccc2)C(=O)CCl)cc1 [Tosyl-Phe-CMK (TPCK)] | −0.233 | 0.851 | – | – | – |
| CCCCC[C@H](O)C/C=C1/C(=O)C=C[C@@H]1C/C=C\CCCC(=O)O [D12-PROSTAGLANDIN J2] | – | – | – | – | Fold (luciferase activity relative to DMSO controls) (in vivo): 0.988 fold; Log2 (fold) of luciferase activity relative to DMSO controls (in vivo): −0.017 |
| C[C@@H]1C[C@@H]([C@H](O)CC2CC(=O)NC(=O)C2)C(=O)[C@@H](C)C1 [cycloheximide, reference compound] | −1.568 | 0.337 | – | – | Fold: 0.337 fold |
| CCCC[C@@H](C=O)NC(=O)[C@H](CC(C)C)NC(=O)[C@H](CC(C)C)NC(C)=O [Ac-Leu-Leu-Nle-CHO] (Ac-Leu-Leu-[Nle]-aldehyde) | −0.431 | 0.742 | – | – | – |
| Br.NC1CCc2cc(O)c(O)cc2C1 (stereo not shown) [6,7-ADTN HBr] | −0.383 | 0.767 | – | – | – |
| CCCCC[C@H](O)/C=C/[C@@H]1[C@@H](C/C=C\CCCC(=O)O)[C@@H](O)C[C@@H]1O [9a,11b-PROSTAGLANDIN F2] | −0.294 | 0.815 | – | – | – |
| CCCCC/C=C\C/C=C\C/C=C\CCCCC(=O)O [GAMMA-LINOLENIC ACID (18:3 n-6)] | – | – | −0.145 | 0.904 | – |
| tunicamycin [reference compound] | −1.925 | 0.263 | – | – | Fold: 0.263 fold |
| CCCCC/C=C\C/C=C\CCCCCCCC(=O)O [LINOLEIC ACID] | – | – | 0.024 | 1.017 | – |
| O=C(O)CN1C(=O)c2cccc3cccc(c23)C1=O [Alrestatin] | −0.320 | 0.801 | – | – | – |
| NC(=NCc1ccccc1)NC(=O)c1nc(Cl)c(N)nc1N [BENZAMIL] | – | – | 0.006 | 1.004 | – |
| CCCCC/C=C\C\C=C/C=C/C=C/[C@@H](SC[C@H](N)C(=O)NCC(=O)O)[C@@H](O)CCCC(=O)O [LEUKOTRIENE D4] | – | – | 0.234 | 1.176 | – |
| CC(O)(C(=O)Nc1ccc(S(=O)(=O)c2ccccc2)cc1)C(F)(F)F (stereo not shown) [ZM226600] | – | – | −0.117 | 0.922 | – |
| Cc1cccc(Nc2cc(Cl)nc(SCC(=O)O)n2)c1C [WY-14643] | – | – | 0.020 | 1.014 | – |
| Nc1ncnc2c1nc(Br)n2C1O[C@H]2COP(=O)(O)O[C@@H]2[C@@H]1O (stereo partly shown) [Bromo-cAMP [8-Bromo-cAMP]] | – | – | −0.045 | 0.969 | – |
